According to publication PMC4965013, “Open Source Drug Discovery with the Malaria Box Compound Collection for Neglected Diseases and Beyond” (PLoS Pathogens, 2016):
Where two headings read alike, the source gives them in different places.

Key:
[1] = test system: Schistosoma mansoni schistosomula (somules); assay: S. mansoni somules phenotypic screen Caffrey
[2] = test system: P. falciparum HB3; assay: Stage-specificity / mitochondrial integrity image assay Ayong; type: cell-based; conditions: 10µM
[3] = test system: U87-CD4-CCR5 or U87-CD4-CXCR4 cells; assay: U87 cell viability MTT; type: cell-based; conditions: for U87 % cell death rep3 (X4 P24 Washout expt): 5uM; for U87 % Cell Death rep3 (R5 P24 Washout expt) / U87 % cell death rep3 (R5 P24 NO Washout expt) / U87 % cell death rep3 (X4 P24 NO Washout expt) / U87 Luc % cell death rep1 / U87 Luc % cell death rep2: 5µM
[4] = test system: HIV-1 JR-FL or HIV-1 NL4-3 viruses; assay: HIV-1 viral production p24 ELISA; type: cell-based
Description: Columns FK-GB, Moore group (data presented first in this paper). HIV and HIV-producing cell lines, toxicity and viral suppression. […] MMV compounds were incubated with HIV-1 JR-FL or HIV-1 NL4-3 pseudoviruses and U87-CD4-CCR5 or U87-CD4-CXCR4 cells (obtained through the NIH AIDS Reagent Program, Division of AIDS, NIAID, NIH: U87 CD4+CCR5+ Cells from Dr. HongKui Deng and Dr. Dan R. Littman) respectively for 3 days. Cells were assayed for infection by luciferase production (Bright-Glo Luciferase Substrate, Promega) and cell viability by MTT assay. […] MMV compounds were next incubated with HIV-1 JR-FL or HIV-1 NL4-3 viruses and U87-CD4-CCR5 or U87-CD4-CXCR4 cells respectively for 7 days. Cell supernatants were assayed for viral production by p24 ELISA [153] and cell viability by MTT assay. […] DMSO (5%) was completely toxic to all cells (based on visual inspection) and served as the positive control for MTT assays.

[5] = test system: T. equi (USDA strain); assay: T. equi fluorescence-based growth assay; type: cell-based; conditions: Theileria equi
[6] = test system: Dictyostelium discoideum; assay: D. discoideum toxicity assay; type: cell-based; conditions: 10µM
Description: Columns FA-FC: Soldati Group (data presented first in this paper). M. marinum, D. discoideum, and Acathamoeba castellani assays. Each compound of the Malaria Box has been assayed at 10 µM in all three assays. First, the antibiotic activity was assayed directly against Mycobacterium marinum in its culture medium. Second, the toxicity and growth inhibitory effect of the compounds was assayed against the amoeba Dictyostelium discoideum in its culture medium. Finally, the “in cellulo” anti-infective activity of each compound was tested using the intracellular infection system Acanthamoeba castellanii-M. marinum. Values have been normalized using the DMSO carrier. For each assay, values have been normalized to 1.00 using the DMSO carrier, which has no detectable effect on D. discoideum nor M. marinum growth, while rifabutin was used as positive control for the antibiotic assay and the infection assay, as it abolishes M. marinum growth (normalized value under 0.10) in broth at 10 µM and intracellularly at 30 µM [150].

[7] = test system: P. berghei liver stages in HepG2; assay: P. berghei liver stage luciferase Hanson; type: cell-based; conditions: Plasmodium berghei, read-out: P. berghei Liver Stage % of control infection (Luciferase)
Description: Columns AS-AT: Hanson group (data presented first in this paper). P. berghei liver stage growth. Phenotypic analysis of Malaria Box compound activity against P. berghei liver stages and assay development will be reported elsewhere (Medina Vera, Itoe, et al; in preparation). Methods: Screening was carried out in 96 well plates, with 10,000 HepG2 cells (ATCC) seeded one day prior to infection with 10,000 P. berghei-Luciferase (676m1cl1) sporozoites per well in the presence of 1:300 Fungizone (Life Technologies). Medium was replaced 2 hours post-infection (hpi) and the Malaria Box compounds were added at a final concentration of 5 µM at this time. At 48 hpi, parasite load, by way of luminescence, was quantified after a 10 minute incubation with 50 µl of 150 µg/ml D-Luciferin on a Tecan Infinite M200 plate reader. Plates included 8 wells of DMSO (compound vehicle and positive control for infection), along with 8 non-infected wells serving as negative controls. Luminescence values for individual wells were normalized to the mean of the in-plate DMSO controls, which was set at 100. […] The normalized mean of non-infected control wells was 2.5, with a standard deviation of 2. Data presented are the average of 3 independent experiments, each conducted in technical triplicate. Toxicity of the compounds was determined at 66 hpi based on HepG2 cell abundance in 9 non-overlapping images per well, generated with a Molecular Devices IXM using a 40x objective. Briefly, EEFs were identified based on 2E6 immunolabeling and used to mask widefield images of Hoechst 33452-labeled nuclei, and the percentage of each 2,160 x 2,160 pixel image occupied by Hoechst^+ pixels, representing HepG2 nuclei only, was then determined for all images in CellProfiler. Data is from one representative experiment. The mean area occupied by HepG2 nuclei in the 8 DMSO controls wells was set to 1, and used to normalize those treated with compounds.

[8] = test system: Trypanosoma cruzi; assay: T. cruzi Scynexis; type: cell-based
[9] = test system: Chromera velia; assay: Chromera velia flagellation motility assay; conditions: 1µM
[10] = test system: Aedes aegypti; assay: Aedes aegypti Scynexis; conditions: 10µM
Description: Supplement ppat.1005763.s002.xlsx, sheet "S1 Table Heat Map" | column: Aedes aegypti % dead 48hr 10 µM Synexis

[11] = test system: Perkinsus marinus trophozoites; set-up: method as in ref [96] (a number printed in a supplementary file, which may have a reference list of its own: not looked up in the article's list); conditions: 20µM; ref [96]; cited from earlier work
[12] = test system: Entamoeba histolytica Rahman; set-up: method as in ref [87] (a number printed in a supplementary file, which may have a reference list of its own: not looked up in the article's list); conditions: read-out: Entamoeba histolytica Rahman EC50 (30 means >30); ref [87]; cited from earlier work
[13] = test system: P. falciparum NF54 gametocytes; set-up: method as in ref [72] (a number printed in a supplementary file, which may have a reference list of its own: not looked up in the article's list); conditions: 10µM; ref [72]; cited from earlier work
[14] = test system: HIV-1 JR-FL or HIV-1 NL4-3 pseudoviruses; assay: HIV-1 pseudovirus infection luciferase; type: cell-based; conditions: Human immunodeficiency virus 1, HXB2 / NL43, read-out: HIV HXB2 % inhibition rep2 in U87 Luc
[15] = Human immunodeficiency virus 1, NL43, read-out: HIV R5 % inhibition rep3 in U87 (P24 Washout)
[16] = Human immunodeficiency virus 1, NL43, read-out: HIV X4 % inhibition rep3 in U87 (P24 NO Washout)
[17] = Human immunodeficiency virus 1, NL43, read-out: HIV X4 %inhibition rep3 in U87 (P24 Washout)
[18] = Human immunodeficiency virus 1, NL43, read-out: HIV R5 % inhibition rep3 in U87 (P24 NO Washout)

Structure (SMILES) | S. mansoni newly transformed schistosomula, visual tox scale, 0 = none, 4=most damaged ([1]; 24 h at 2.5µM) | S. mansoni newly transformed schistosomula, visual tox scale, 0 = none, 4=most damaged ([1]; 72 h at 2.5µM) | U87 % cell death rep3 (X4 P24 Washout expt) [3] [%] | U87 % Cell Death rep3 (R5 P24 Washout expt) [3] [%] | U87 % cell death rep3 (R5 P24 NO Washout expt) [3] [%] | U87 % cell death rep3 (X4 P24 NO Washout expt) [3] [%] | U87 Luc % cell death rep1 [3] [%] | U87 Luc % cell death rep2 [3] [%] | inhibition at 5 µM [4, 15] [%] | inhibition at 5 µM [4, 16] [%] | inhibition at 5 µM [4, 17] [%] | EC50 [5] [µM] | activity at 5 µM [7] [%] | inhibition at 5 µM [8] [%] | Chromera velia 24 hr Flagellation (control standardized to ++; 0 = no flagella) [9] | Chromera velia 72 hr Flagellation (control standardized to ++; 0 = no flagella) [9] | Aedes aegypti % dead 48hr [10] [%] | Perkinsus marinus % growth [11] [%] | EC50 [12] [µM] | gametocyte stage IV-V SYBR Green % inhibition [13] [%] | further results
CCN(CC)c1cc(C)c2cc(NC(=O)c3cccc(OC)c3)ccc2n1 [MMV000498] | 2 | 0 | -4 | 1.63 | 33 | 13 | 21 | 64 | -9 | -118 | -40 | 0.46 | 63 | 98 | ++ | +++ | 19 | 74 | > 30 | 60 | P. falciparum HB3 early ring (ER) stage activity [2]: ✖; P. falciparum HB3 late ring (LR) stage activity [2]: ✖; P. falciparum HB3 trophozoite (T) stage activity [2]: ✖; Dictyostelium discoideum relative growth DMSO=1 Toxicity Assay [6]: 0.60; inhibition at 5 µM [14]: 55%
COc1cc2cc(C(=O)Nc3ccccc3)c(N)nc2cc1OC [MMV006767] | 0 | 2 | 51 | -0.103 | 95 | 106 | 75 | 43 | 9 | 104 | 56 | 3.04 | 53 | 86 | +++ | ++ | -3 | 44 | > 30 | 60 | P. falciparum HB3 late ring (LR) stage activity [2]: T,S; P. falciparum HB3 trophozoite (T) stage activity [2]: ✖; inhibition at 5 µM [4, 18]: 103%; inhibition at 5 µM [14]: 51%
CCOC(=O)c1cnc2ccc(OC)cc2c1NCc1ccccc1 [MMV665813] | 1 | 1 | 12 | -10 | -9 | 46 | -52 | 36 | -13 | 20 | 16 | 14.1 | 66 | -49 | +++ | ++ | -2 | 69 | > 30 | 61 | inhibition at 5 µM [4, 18]: -50%; Dictyostelium discoideum relative growth DMSO=1 Toxicity Assay [6]: 0.71; inhibition at 5 µM [14]: -1.56%
